Where two headings read alike, the source gives them in different places.
Key:
Sprague Dawley rats = experiment: Feed intake in Sprague Dawley rats; type: in vivo, rat; conditions: cumulative feed intake vs vehicle; for inhibition in vivo at 25 mg/kg / inhibition in vivo at 50 mg/kg: Rattus norvegicus; for inhibition in vivo at 25 mg/kg: ip
Source text: In Vivo Efficacy Studies: Feed Intake in Sprague Dawley Rats:
Sprague Dawley rats of 6-8 week age are used for this experiment they are kept for acclimatization in reversed light/dark cycle for 15 days. Animals will have free access to a standard chow diet and water during acclimatization period. After 15 days reversed light/dark cycle acclimatization animals are trained for fasting induced feed intake for 5 days till they show consistent feed intake. Grouping was done based on the monitored feed intake during the training days. On treatment day each group of animals are dosed with test compound or vehicle by appropriate routes of administration (orally or intraperitoneally). Exactly 30 min. after treatment, measured amount of standard chow diet is provided and recorded as O-min feed offered. Then subsequently 2, 4, 6 and 24 hour after O-min, feed intake is measured and the cumulative feed intakes are calculated. The change in cumulative feed intake as compared to vehicle treated control at each time point is calculated for test compound.

[1] = target: T1, recombinant human GPR 119 receptor (Homo sapiens, UniProt Q8TDV5); experiment: cAMP assay in stable cell line expressing recombinant human GPR 119 receptor; type: cell-based; conditions: intracellular cAMP
T1 construct: expressed in transfected cells
T1 sequence (Q8TDV5 1-335): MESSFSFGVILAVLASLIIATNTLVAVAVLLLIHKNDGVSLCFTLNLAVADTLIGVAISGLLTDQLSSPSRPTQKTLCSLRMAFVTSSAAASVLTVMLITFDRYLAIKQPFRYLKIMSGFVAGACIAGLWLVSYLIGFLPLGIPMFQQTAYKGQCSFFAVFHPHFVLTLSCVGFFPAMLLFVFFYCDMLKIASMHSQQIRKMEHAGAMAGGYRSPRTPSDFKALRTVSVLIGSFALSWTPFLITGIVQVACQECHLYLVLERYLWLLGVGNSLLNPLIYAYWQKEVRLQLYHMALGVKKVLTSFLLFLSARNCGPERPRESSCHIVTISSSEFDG
Source text: cAMP assay: A stable cell line expressing recombinant human GPR 119 receptor was established and used to investigate the efficacy of the compounds of the invention based on the intracellular levels of cyclic AMP (cAMP) using commercially available cAMP kits. Compounds of the invention produced a concentration dependent increase in cAMP level and EC50 values of representative compounds were provided in table 1.

C57/BL6 mice = experiment: Oral glucose tolerance test (OGTT) in C57/BL6 mice; type: in vivo, mouse; conditions: serum glucose AUC, single oral dose, glucose load 3 gm/kg; for inhibition in vivo at 50 mg/kg: Mus musculus, 2 h, read-out: % reduction in AUC at 50 mg/kg
Procedure: Oral Glucose Tolerance Tests (OGTT) in C57/BL6 Mice:
C57/BL6 mice of 6-8 week age are used for this experiment. Animals are grouped based on non-fasting serum glucose levels and kept on fasting for overnight (day before OGTT). On the experiment day, […], 30 min post dosing animals are bled for basal glucose level estimation and at the same time glucose load (3 gm/kg) will be administered per orally. Blood is collected at time points corresponding to 20, 40, 60 and 120 min after glucose load administration. Serum is separated for determination of glucose levels and change in area under curve for glucose is calculated and provided in table 4 as % reduction in AUC.

[2] = intraperitoneal, 25 mg/kg, 2 hour, read-out: % reduction in food in take, 2 hour
[3] = intraperitoneal, 25 mg/kg, 4 hour, read-out: % reduction in food in take, 4 hour
[4] = intraperitoneal, 25 mg/kg, 6 hour, read-out: % reduction in food in take, 6 hour
[5] = intraperitoneal, 25 mg/kg, 24 hour, read-out: % reduction in food in take, 24 hour
[6] = oral, 50 mg/kg, 2 hour, read-out: % reduction in food in take, 2 hour
[7] = oral, 50 mg/kg, 4 hour, read-out: % reduction in food in take, 4 hour
[8] = oral, 50 mg/kg, 6 hour, read-out: % reduction in food in take, 6 hour
[9] = oral, 50 mg/kg, 24 hour, read-out: % reduction in food in take, 24 hour

Compound	inhibition in vivo at 25 mg/kg (Sprague Dawley rats; [2])	inhibition in vivo at 25 mg/kg (Sprague Dawley rats; [3])	inhibition in vivo at 25 mg/kg (Sprague Dawley rats; [4])	inhibition in vivo at 25 mg/kg (Sprague Dawley rats; [5])	EC50 [1]	inhibition in vivo at 50 mg/kg (C57/BL6 mice)	other results
CC(C)c1noc(C2CCN(c3ncnc(Oc4ccc([C@H]5CO[S@@](=O)OC5)cc4)c3[N+](=O)[O-])CC2)n1 [Example 1, cis-5-(4-((6-(4-(3-isopropyl-1,2,4-oxadiazol-5-yl)piperidin-1-yl)-5-nitropyrimidin-4-yl)oxy)phenyl)-1,3,2-dioxathiane 2-oxide]	45%	24%	8.5%	4%	31 nM	23%	
Cc1c(Oc2ccc([C@H]3CO[S@@](=O)OC3)cc2)ncnc1OC1CCN(c2nc(C(C)C)no2)CC1 [Example 3, cis-5-(4-((6-((1-(3-isopropyl-1,2,4-oxadiazol-5-yl)piperidin-4-yl)oxy)-5-methylpyrimidin-4-yl)oxy)phenyl)-1,3,2-dioxathiane 2-oxide]	34%	25%	25%	17%	13 nM	23%	
Cc1c(Oc2ccc([C@H]3CO[S@](=O)OC3)cc2)ncnc1OC1CCN(c2nc(C(C)C)no2)CC1 [Example 4, trans-5-(4-((6-((1-(3-isopropyl-1,2,4-oxadiazol-5-yl)piperidin-4-yl)oxy)-5-methylpyrimidin-4-yl)oxy)phenyl)-1,3,2-dioxathiane 2-oxide]	40%	33%	21%		11 nM	31%	inhibition in vivo at 50 mg/kg (Sprague Dawley rats; [6]): 30%; inhibition in vivo at 50 mg/kg (Sprague Dawley rats; [7]): 24%; inhibition in vivo at 50 mg/kg (Sprague Dawley rats; [8]): 9.5%; inhibition in vivo at 50 mg/kg (Sprague Dawley rats; [9]): 6%
CCc1cnc(N2CCC(Oc3ncnc(Oc4ccc([C@H]5CO[S@@](=O)OC5)cc4)c3C)CC2)nc1 [Example 9, cis-5-(4-((6-((1-(5-ethylpyrimidin-2-yl)piperidin-4-yl)oxy)-5-methylpyrimidin-4-yl)oxy)phenyl)-1,3,2-dioxathiane 2-oxide]	44%	37%	30%	24%	12 nM	31%	inhibition in vivo at 50 mg/kg (Sprague Dawley rats; [6]): 25%; inhibition in vivo at 50 mg/kg (Sprague Dawley rats; [7]): 12%; inhibition in vivo at 50 mg/kg (Sprague Dawley rats; [8]): 6%; inhibition in vivo at 50 mg/kg (Sprague Dawley rats; [9]): 2%
CCc1cnc(N2CCC(Oc3ncnc(Oc4ccc([C@H]5CO[S@](=O)OC5)cc4)c3C)CC2)nc1 [Example 10, trans-5-(4-((6-((1-(5-ethylpyrimidin-2-yl)piperidin-4-yl)oxy)-5-methylpyrimidin-4-yl)oxy)phenyl)-1,3,2-dioxathiane 2-oxide]					73.6 nM	29%	inhibition in vivo at 50 mg/kg (Sprague Dawley rats; [6]): 36%; inhibition in vivo at 50 mg/kg (Sprague Dawley rats; [7]): 29%; inhibition in vivo at 50 mg/kg (Sprague Dawley rats; [8]): 15%; inhibition in vivo at 50 mg/kg (Sprague Dawley rats; [9]): 15%
Cc1c(Oc2ccc([C@H]3CO[S@@](=O)OC3)cc2)ncnc1OC1CCN(C(=O)OC(C)(C)C)CC1 [Example 15, cis-tert-butyl 4-((5-methyl-6-(4-(2-oxido-1,3,2-dioxathian-5-yl)phenoxy)pyrimidin-4-yl)oxy)piperidine-1-carboxylate]	47%	31%	28%	19%	4.2 nM		
Cc1c(Oc2ccc([C@H]3CO[S@](=O)OC3)cc2)ncnc1OC1CCN(C(=O)OC(C)(C)C)CC1 [Example 16, trans-tert-butyl 4-((5-methyl-6-(4-(2-oxido-1,3,2-dioxathian-5-yl)phenoxy)pyrimidin-4-yl)oxy)piperidine-1-carboxylate]	21%	27%	10%		15 nM	34%	
CC(C)(C)OC(=O)N1CCC(c2nc(COc3ccc([C@H]4CO[S@@](=O)OC4)cc3)cs2)CC1 [Example 17, cis-tert-butyl 4-(4-((4-(2-oxido-1,3,2-dioxathian-5-yl)phenoxy)methyl)thiazol-2-yl)piperidine-1-carboxylate]							% reduction in food in take, 2 hour (Sprague Dawley rats; intraperitoneal, 25 mg/kg, 2 hour): 34%; % reduction in food in take, 4 hour (Sprague Dawley rats; intraperitoneal, 25 mg/kg, 4 hour): 34%; % reduction in food in take, 6 hour (Sprague Dawley rats; intraperitoneal, 25 mg/kg, 6 hour): 24%; % reduction in food in take, 24 hour (Sprague Dawley rats; intraperitoneal, 25 mg/kg, 24 hour): 13%; % reduction in AUC at 50 mg/kg (C57/BL6 mice): 34%
CC(C)(C)OC(=O)N1CCC(c2nc(COc3ccc(C4COS(=O)OC4)cc3)cs2)CC1 (stereo not drawn) [Example 18, trans-tert-butyl 4-(4-((4-(2-oxido-1,3,2-dioxathian-5-yl)phenoxy)methyl)thiazol-2-yl)piperidine-1-carboxylate]							% reduction in AUC at 50 mg/kg (C57/BL6 mice): 11%
Cc1c(OCCCC2CCN(C(=O)OC(C)(C)C)CC2)ncnc1Oc1ccc(C2COS(=O)OC2)cc1 (stereo not drawn) [Example 20, cis-tert-butyl 4-(3-((5-methyl-6-(4-(2-oxido-1,3,2-dioxathian-5-yl)phenoxy)pyrimidin-4-yl)oxy)propyl)piperidine-1-carboxylate]							% reduction in AUC at 50 mg/kg (C57/BL6 mice): 25%
Cc1c(Oc2ccc([C@H]3CO[S@@](=O)OC3)cc2)ncnc1OC1CCN(C(=O)OCC(C)C)CC1 [Example 27, cis-isobutyl 4-((5-methyl-6-(4-(2-oxido-1,3,2-dioxathian-5-yl)phenoxy)pyrimidin-4-yl)oxy)piperidine-1-carboxylate]	35%	35%	31%	17%	27 nM	30%	inhibition in vivo at 50 mg/kg (Sprague Dawley rats; [6]): 23%; inhibition in vivo at 50 mg/kg (Sprague Dawley rats; [7]): 20%; inhibition in vivo at 50 mg/kg (Sprague Dawley rats; [8]): 23%; inhibition in vivo at 50 mg/kg (Sprague Dawley rats; [9]): 5%
CCOC(=O)N1CCC(Oc2ncnc(Oc3ccc(C[C@H]4CO[S@@](=O)OC4)cc3)c2C)CC1 [Example 39, cis-ethyl 4-((5-methyl-6-(4-((2-oxido-1,3,2-dioxathian-5-yl)methyl)phenoxy)pyrimidin-4-yl)oxy)piperidine-1-carboxylate]					94 nM		
CCc1cnc(N2CCC(Oc3ccc(C[C@H]4CO[S@](=O)OC4)cc3)CC2)nc1 [Example 60, trans-5-(4-((1-(5-ethylpyrimidin-2-yl)piperidin-4-yl)oxy)benzyl)-1,3,2-dioxathiane 2-oxide]							% reduction in food in take, 2 hour (Sprague Dawley rats; oral, 50 mg/kg, 2 hour): 39%; % reduction in food in take, 4 hour (Sprague Dawley rats; oral, 50 mg/kg, 4 hour): 31%; % reduction in food in take, 6 hour (Sprague Dawley rats; oral, 50 mg/kg, 6 hour): 24%; % reduction in food in take, 24 hour (Sprague Dawley rats; oral, 50 mg/kg, 24 hour): 5.3%
Cc1c(Oc2ccc(C[C@H]3CO[S@@](=O)OC3)cc2Cl)ncnc1OC1CCN(C(=O)OC(C)(C)C)CC1 [Example 63, cis-tert-butyl 4-((6-(2-chloro-4-((2-oxido-1,3,2-dioxathian-5-yl)methyl)phenoxy)-5-methylpyrimidin-4-yl)oxy)piperidine-1-carboxylate]							% reduction in food in take, 2 hour (Sprague Dawley rats; oral, 50 mg/kg, 2 hour): 44%; % reduction in food in take, 4 hour (Sprague Dawley rats; oral, 50 mg/kg, 4 hour): 41%; % reduction in food in take, 6 hour (Sprague Dawley rats; oral, 50 mg/kg, 6 hour): 25%; % reduction in food in take, 24 hour (Sprague Dawley rats; oral, 50 mg/kg, 24 hour): 15%; % reduction in AUC at 50 mg/kg (C57/BL6 mice): 31%
